Inconclusive results and toxic doses are left out. The calls were made as follows: active = survival T/C of 150% or more; inactive = T/C below 125% in these data.
System: CD2F1 mice, L1210 leukemia ip, survival T/C
Assay: NCI In Vivo Anticancer Drug Screen. Data for tumor model L1210 Leukemia (intraperitoneal) in CD2F1 (CDF1) mice
Settings: higher = longer survival
Outline: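 Activity against a transplanted murine tumor was judged by comparing the compound group with a vehicle group. The outcome in the treated animals was divided by that in the controls.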

[1] = endpoint: mean survival time, dose: 100.0 mg/kg/injection, schedule: Q04DX002 (ip), vehicle: saline with Tween-80
[2] = endpoint: mean survival time, dose: 200.0 mg/kg/injection, schedule: Q04DX002 (ip), vehicle: saline with Tween-80
[3] = endpoint: mean survival time, dose: 100.0 mg/kg/injection, schedule: Q04DX003 (ip), vehicle: saline with Tween-80
[4] = endpoint: mean survival time, dose: 100.0 mg/kg/injection, schedule: Q01DX001 (ip), vehicle: saline with Tween-80
[5] = endpoint: mean survival time, dose: 200.0 mg/kg/injection, schedule: Q01DX001 (ip), vehicle: saline with Tween-80
[6] = endpoint: mean survival time, dose: 100.0 mg/kg/injection, schedule: Q01DX009 (ip), vehicle: saline with Tween-80
[7] = endpoint: mean survival time, dose: 200.0 mg/kg/injection, schedule: Q01DX009 (ip), vehicle: saline with Tween-80
[8] = endpoint: mean survival time, dose: 50.0 mg/kg/injection, schedule: Q01DX009 (ip), vehicle: saline
[9] = endpoint: mean survival time, dose: 100.0 mg/kg/injection, schedule: Q01DX009 (ip), vehicle: saline
[10] = endpoint: mean survival time, dose: 200.0 mg/kg/injection, schedule: Q01DX009 (ip), vehicle: saline
[11] = endpoint: mean survival time, dose: 200.0 mg/kg/injection, schedule: Q04DX003 (ip), vehicle: saline with Tween-80
[12] = endpoint: mean survival time, dose: 400.0 mg/kg/injection, schedule: Q01DX009 (ip), vehicle: saline with Tween-80
[13] = endpoint: mean survival time, dose: 400.0 mg/kg/injection, schedule: Q04DX003 (ip), vehicle: saline with Tween-80
[14] = endpoint: mean survival time, dose: 50.0 mg/kg/injection, schedule: Q01DX009 (ip), vehicle: saline with Tween-80

Measured: T/C

CC(C)OC(CCC#N)c1ccc(Cl)cc1 (stereo not given)
inactive: endpoint: mean survival time, dose: 100.0 mg/kg/injection, schedule: Q01DX009 (ip), vehicle: other 98 % of control | endpoint: mean survival time, dose: 100.0 mg/kg/injection, schedule: Q04DX003 (ip), vehicle: other 94 % of control | endpoint: mean survival time, dose: 200.0 mg/kg/injection, schedule: Q01DX009 (ip), vehicle: other 107 % of control | endpoint: mean survival time, dose: 200.0 mg/kg/injection, schedule: Q04DX003 (ip), vehicle: other 94 % of control | endpoint: mean survival time, dose: 400.0 mg/kg/injection, schedule: Q01DX009 (ip), vehicle: other 96 % of control | endpoint: mean survival time, dose: 400.0 mg/kg/injection, schedule: Q04DX003 (ip), vehicle: other 93 % of control

CCCCCOc1ccccc1Cl
inactive: [1] 101 % of control | [2] 98 % of control

CCC1(O)C(=O)OCc2c1cc1n(c2=O)Cc2cc3ccc(CN)cc3nc2-1 (stereo not given)
inactive: endpoint: median survival time, dose: 10.0 mg/kg/injection, schedule: Q04DX002 (ip), vehicle: saline with Tween-80 109 % of control | endpoint: median survival time, dose: 10.0 mg/kg/injection, schedule: Q04DX002 (ip), vehicle: water 102 % of control | endpoint: median survival time, dose: 20.0 mg/kg/injection, schedule: Q04DX002 (ip), vehicle: saline with Tween-80 109 % of control | endpoint: median survival time, dose: 20.0 mg/kg/injection, schedule: Q04DX002 (ip), vehicle: water 102 % of control | endpoint: median survival time, dose: 40.0 mg/kg/injection, schedule: Q04DX002 (ip), vehicle: saline with Tween-80 106 % of control | endpoint: median survival time, dose: 40.0 mg/kg/injection, schedule: Q04DX002 (ip), vehicle: water 107 % of control | endpoint: median survival time, dose: 80.0 mg/kg/injection, schedule: Q04DX002 (ip), vehicle: saline with Tween-80 113 % of control | endpoint: median survival time, dose: 80.0 mg/kg/injection, schedule: Q04DX002 (ip), vehicle: water 108 % of control

Brc1sccc1-c1cccc2ccccc12
inactive: endpoint: mean survival time, dose: 25.0 mg/kg/injection, schedule: Q04DX003 (ip), vehicle: saline with Tween-80 104 % of control | endpoint: mean survival time, dose: 50.0 mg/kg/injection, schedule: Q04DX003 (ip), vehicle: saline with Tween-80 96 % of control | [3] 104 % of control

NS(=O)(=O)c1ccc(Cl)c2ccccc12
inactive: [4] 93 % of control | [5] 98 % of control

Nc1cccc2ccc(S(=O)(=O)O)cc12
inactive: [6] 101 % of control | [7] 106 % of control

[Cl][Pt+2][Cl].[NH-]CC(=O)O.[NH-]CC(=O)O
inactive: endpoint: mean survival time, dose: 12.5 mg/kg/injection, schedule: Q01DX009 (ip), vehicle: saline 96 % of control | endpoint: mean survival time, dose: 25.0 mg/kg/injection, schedule: Q01DX009 (ip), vehicle: saline 101 % of control | [8] 108 % of control | [9] 98 % of control | [10] 96 % of control

CCOC(CNCc1ccc(OC)cc1)OCC
inactive: endpoint: mean survival time, dose: 100.0 mg/kg/injection, schedule: Q01DX001 (ip), vehicle: saline 104 % of control | endpoint: mean survival time, dose: 200.0 mg/kg/injection, schedule: Q01DX001 (ip), vehicle: saline 111 % of control

CC(=O)OC1CCC2(C)C3=CCC4(C)C(C(C)/C=C\C(C)C(C)C)CCC4C34C=CC2(C1)C1C(=O)OC(=O)C14 (stereo not given)
inactive: endpoint: mean survival time, dose: 50.0 mg/kg/injection, schedule: Q01DX001 (ip), vehicle: saline with Tween-80 97 % of control | [4] 91 % of control | [1] 86 % of control | [5] 95 % of control

CCOC(=O)c1c[nH]c2ccc([N+](=O)[O-])cc2c1=O
inactive: endpoint: mean survival time, dose: 100.0 mg/kg/injection, schedule: Q01DX001 (ip), vehicle: Klucel (hydroxypropylcellulose) (HPC) 111 % of control | [6] 97 % of control | [3] 90 % of control | endpoint: mean survival time, dose: 200.0 mg/kg/injection, schedule: Q01DX001 (ip), vehicle: Klucel (hydroxypropylcellulose) (HPC) 96 % of control | [7] 100 % of control | [11] 91 % of control | endpoint: mean survival time, dose: 400.0 mg/kg/injection, schedule: Q01DX001 (ip), vehicle: Klucel (hydroxypropylcellulose) (HPC) 100 % of control | [12] 94 % of control | [13] 88 % of control

Cc1ccnc(OCCCCCNCCS)c1
inactive: endpoint: mean survival time, dose: 75.0 mg/kg/injection, schedule: Q01DX001 (ip), vehicle: saline 98 % of control | endpoint: mean survival time, dose: 150.0 mg/kg/injection, schedule: Q01DX001 (ip), vehicle: saline 98 % of control

COc1ccc(C=Nc2ccc(C)cc2)cc1
inactive: [6] 108 % of control | [3] 103 % of control | [7] 98 % of control | [11] 115 % of control | [12] 104 % of control | [13] 116 % of control

O=C(O)C1CCCN1C(=O)C(CSC(c1ccccc1)(c1ccccc1)c1ccccc1)NC(c1ccccc1)(c1ccccc1)c1ccccc1 (stereo not given)
inactive: [8] 101 % of control | [9] 97 % of control | [10] 98 % of control | endpoint: mean survival time, dose: 400.0 mg/kg/injection, schedule: Q01DX009 (ip), vehicle: saline 97 % of control

COc1ccc(C(=O)NN)cc1
inactive: endpoint: mean survival time, dose: 25.0 mg/kg/injection, schedule: Q01DX009 (ip), vehicle: saline with Tween-80 115 % of control | [14] 110 % of control | [6] 109 % of control | [3] 101 % of control

CC1=C(C)C(COS(=O)(=O)c2ccc(C)cc2)C1COS(=O)(=O)c1ccc(C)cc1 (stereo not given)
inactive: endpoint: mean survival time, dose: 100.0 mg/kg/injection, schedule: Q04DX003 (ip), vehicle: saline 97 % of control | endpoint: mean survival time, dose: 200.0 mg/kg/injection, schedule: Q04DX003 (ip), vehicle: saline 97 % of control | endpoint: mean survival time, dose: 400.0 mg/kg/injection, schedule: Q04DX003 (ip), vehicle: saline 95 % of control

c1ccc(CN2CCCCc3ccccc32)cc1
inactive: [14] 100 % of control | [6] 98 % of control | [7] 104 % of control

O=C(OCCOC(=O)N1CCOCC1)N1CCOCC1
inactive: [1] 101 % of control | [2] 97 % of control | endpoint: mean survival time, dose: 400.0 mg/kg/injection, schedule: Q04DX002 (ip), vehicle: saline with Tween-80 101 % of control

C[N+](C)=CN1c2ccccc2Sc2ccccc21
inactive: [6] 97 % of control | [7] 103 % of control

COc1cc(C(=O)c2c(OC)cccc2C(=O)O)c(OC)cc1C
inactive: endpoint: mean survival time, dose: 12.5 mg/kg/injection, schedule: Q01DX009 (ip), vehicle: water 100 % of control | endpoint: mean survival time, dose: 25.0 mg/kg/injection, schedule: Q01DX009 (ip), vehicle: water 100 % of control | endpoint: mean survival time, dose: 50.0 mg/kg/injection, schedule: Q01DX009 (ip), vehicle: water 95 % of control | endpoint: mean survival time, dose: 100.0 mg/kg/injection, schedule: Q01DX009 (ip), vehicle: water 95 % of control | endpoint: mean survival time, dose: 200.0 mg/kg/injection, schedule: Q01DX009 (ip), vehicle: water 97 % of control
